Laboratory results reported in patent US6908902B2, “Treatment of neurological dysfunction comprising fructopyranose sulfamates and erythropoietin” (Ortho-McNeil Pharmaceutical, Inc., priority 2001, dated 2005).

Key:
Type in all cases: cell-based
[1] = tested on: Rat Cortical Cultures; assay: Array Scan Assay, Neurite Outgrowth (Neuron-specific); details: mean of eight observations
Excerpt: (§1) Dissociated hippocampal and cortical cell cultures were established from embryonic Day 18 rat fetuses as previously described (Mattson et al., 1994). Briefly, fetuses were removed via cesarean section from pregnant rats (Sprague-Dawley) and anesthetized with halothane according to the AVMA Panel on Euthanasia. Fetuses were decapitated and the brains were removed and placed in HEPES-buffered Hank's Balanced Salt solution (HBSS; Gibco). The hippocampi and cortices were dissected out and pooled according to tissue-type. Tissue was trypsinized for fifteen minutes (1 mg/ml trypsin-HBSS; Worthington), rinsed with fresh HBSS, incubated in trypsin inhibitor (1 mg/ml; Sigma) for five minutes, rinsed again with fresh HBSS and then triturated in 1 ml fresh HBSS with a fire-polished glass pipette. Dissociated cells were seeded at 20,000 cells (Array Scan Assay) and 30,000 cells (MAP2-FITC assay)/well onto poly-D-lysine coated 96-well plates (Collaborative BioScience). Each well contained 100 μl of Eagle's Minimal Essential Media (MEM; Gibco) supplemented with 26 mM NaHCO3 (Sigma), 56 mM glucose (Sigma), 15 mM KCl (Sigma), 1 mM sodium pyruvate (Sigma), 1.1 mM L-glutamine (Sigma), 10% (v/v) heat-inactivated fetal bovine serum (Hyclone), and 0.001% gentamicin sulfate (Sigma) (pH 7.4). Cells were allowed to attach for twenty-four hours in a humidified 37° C. 5% CO2 incubator before experimental treatment. The culture media was aspirated and exchanged with fresh media every three days.
Twenty-four hours after plating, rat cerebral cortical cell cultures, prepared as described above, were treated with vehicle (phosphate buffered saline+0.1% bovine serum albumin; Sigma), topiramate, EPO (rhEPO; 50 μM stock in 0.2 M citrate, 0.585 g/L NaCl diluted to appropriate concentrations in phosphate buffered saline+0.1% bovine serum albumin (BSA; Sigma)) or a combination of topiramate and EPO. On the third day in culture, the media was aspirated off and replaced with fresh media and test compound.
Culture media (prepared as described above) was aspirated and replaced with formaldehyde/Hoechst solution (fix cells and stain nuclei). Cultures were incubated in this solution for twenty minutes, then washed with permeabilization/wash/antibody (PWA) buffer. The buffer solution was aspirated and 100 μl of primary antibody (rabbit polyclonal IgG; specific for an epitope present only in neurons and neurites) was added to each well. The cultures were incubated for 60 minutes, then washed with PWA buffer. The buffer solution was again aspirated and 100 μl of secondary antibody (Alexa Fluor 488 conjugated goat anti-rabbit IgG) was added to each well. The cultures were incubated for 60 minutes and then washed with PWA buffer, followed by phosphate buffered saline (PBS) solution.
100 μl PBS-CM were added to each well, the plates were sealed and fluorescence was read on the Array Scan II System. (All reagents for this measurement were provided by the neurite outgrowth hit kit # K07-0001-1, Cellomics Inc.) The Array Scan algorithm for neurite outgrowth calculates the neurite outgrowth index for each field per well. This number represents the number of neurons with neurites divided by the total number of neurons in the field.
The ability of rhEPO, topiramate (TPM) and the combination of rhEPO and topiramate to increase neurite outgrowth in rat cortical cell cultures was determined according to the procedure described above, with results as listed in Table 1. For each dosage concentration, the measured value in the Table represents the mean percent change of eight experimental observations (from vehicle control). The abbreviation NT, as used in the Table below represents a concentration not tested.

[2] = tested on: Rat Cortical Cultures; assay: Neurite Outgrowth MAP2-FITC Assay for Rat Cortical Cells; details: one week in culture, mean of eight observations
Excerpt: as §1
(§2) Twenty-four hours after plating, rat cortical cell cultures, prepared as in Example 1, were treated with vehicle (phosphate buffered saline+0.1% bovine serum albumin; Sigma), topiramate, EPO (rhEPO; 50 μM stock in 0.2 M citrate, 0.585 g/L NaCl diluted to appropriate concentrations in phosphate buffered saline+0.1% bovine serum albumin (BSA; Sigma)) or a combination of topiramate and EPO. On the third day in culture, the media was aspirated off and replaced with fresh media and test compound. At one week in culture, the cells were fixed with 10% phosphate-buffered formalin for fifteen minutes, then rinsed with phosphate buffered saline and placed in blocking serum for thirty minutes (horse serum; 1:50 dilution in phosphate buffered saline; Vector Labs). Cultures were rinsed again with phosphate buffered saline and then incubated in primary antibody for two hours (microtubule-associated protein-2 (MAP-2) is a selective marker for dendritic processes; anti-mouse monoclonal (Chemicon); 1:1000 dilution of MAP-2 in antibody diluent (Zymed)). Negative control wells were incubated in antibody diluent alone. Background signal was determined by blank wells (cell-free) incubated with or without antibody. Cultures were rinsed again with phosphate buffered saline and then placed in fluorescein-labeled secondary antibody for one hour (FITC; anti-mouse IgG; rat adsorbed; 1:50 dilution in DPBS; Vector Labs). Cultures were rinsed a final time with phosphate buffered saline. The plates were then read on a Cytofluor 4000 fluorescence plate reader. Neurite outgrowth was expressed as percent change from control (vehicle; mean fluorescence±SEM).
(§3) The ability of rhEPO, topiramate and the combination of rhEPO and topiramate to increase neurite outgrowth in rat cortical cultures was determined according to the procedure described above, with results as listed in Table 3. For each case or treatment, the measured value in the Table represents the mean percent change of eight experimental observations (from vehicle control). The abbreviation NT, as used in Table 3 represents a concentration not tested.

[3] = tested on: Rat Hippocampal Cultures; assay: Neurite Outgrowth MAP2-FITC Assay for Rat Hippocampal Cells; details: one week in culture, mean of eight observations
Excerpt: as §1
as §2, with “hippocampal” for “cortical”, “1 hr” for “one hour”
as §3, with “hippocampal” for “cortical”, “2.” for “3.”, “2” for “3”

[4] = Concentration 1 pM (rhEPO concentration in combinations)
[5] = Concentration 10 pM (rhEPO concentration in combinations)
[6] = Concentration 1 fM (rhEPO concentration in combinations)
[7] = Concentration 10 fM (rhEPO concentration in combinations)
[8] = Concentration 100 fM (rhEPO concentration in combinations)

Row | Compound | Neurite outgrowth, mean percent change from vehicle control (Measured) [1, 4] [%] | Neurite outgrowth, mean percent change from vehicle control (Measured) [1, 5] [%] | Neurite outgrowth, mean percent change from vehicle control (Measured) [1, 6] [%] | Neurite outgrowth, mean percent change from vehicle control (Measured) [1, 7] [%] | Neurite outgrowth, mean percent change from vehicle control (Measured) [1, 8] [%] | Neurite outgrowth, mean percent change from vehicle control (Measured) [2, 4] [%] | Neurite outgrowth, mean percent change from vehicle control (Measured) [2, 5] [%] | Neurite outgrowth, mean percent change from vehicle control (Measured) [2, 6] [%] | Neurite outgrowth, mean percent change from vehicle control (Measured) [2, 7] [%] | Neurite outgrowth, mean percent change from vehicle control (Measured) [2, 8] [%] | Neurite outgrowth, mean percent change from vehicle control (Measured) [3, 4] [%] | Neurite outgrowth, mean percent change from vehicle control (Measured) [3, 5] [%] | Neurite outgrowth, mean percent change from vehicle control (Measured) [3, 6] [%] | Neurite outgrowth, mean percent change from vehicle control (Measured) [3, 7] [%] | Neurite outgrowth, mean percent change from vehicle control (Measured) [3, 8] [%] | Neurite outgrowth, mean percent change from vehicle control (Measured) ([1]; Concentration 100 pM) [%] | Neurite outgrowth, mean percent change from vehicle control (Measured) ([2]; Concentration 100 pM) [%] | Neurite outgrowth, mean percent change from vehicle control (Measured) ([3]; Concentration 100 pM) [%]
1 | rhEPO: Recombinant human erythropoietin; amino acid sequence identical to that of human urinary erythropoietin | 9 | 11 | 29 | −1 | 28 | 19 | 24 | −14 | −2 | 10 | 20 | 21 | 21 | 15 | 12 |  |  | 
2 | CC1(C)O[C@@H]2[C@@H](CO[C@@]3(COS(N)(=O)=O)OC(C)(C)O[C@@H]23)O1 [Topiramate, 2,3:4,5-bis-O-(1-methylethylidene)-β-D-fructopyranose sulfamate, reference compound] | 0 | 20 |  |  | 4 | 23 | 30 |  |  | 24 | 14 | 5 |  |  | 33 | 12 | 37 | −9
